Molecules are shown by their SMILES. Where a name gives a salt, the structure may show the parent alone. Where only a bound is given, the exact number is not on record here.

In one assay the target is T1, IRAK1 (Homo sapiens, UniProt P51617).
T1 construct: His-TEV-IRAK1 (194-712); His (N); TEV cleavage site (N)
Nature of the assay: IRAK1 enzymatic assay (ADP-Glo luminescence). In kind it is biochemical. Particulars: purified human recombinant His-TEV-IRAK1 (194-712). In a few lines:
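Luminescent ADP-Glo read-out of ATP turnover by purified His-TEV-IRAK1 (194-712) at 0.3 μg/ml after a 2-hour RT reaction. Compounds, serially diluted from 10 μM to 0.5 nM, were preincubated with enzyme 15 minutes in Hepes pH 7.0 buffer with MgCl2, DTT, EGTA and Triton X-100.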
Background: In ADP-Glo the light output rises with the ADP produced.

A further assay concerns the target T2, IRAK4 (Homo sapiens, UniProt Q9NWZ3).
T2 construct: His-TEV-IRAK4 (1-460); His (N); TEV cleavage site (N)
T2 sequence (Q9NWZ3 1-460): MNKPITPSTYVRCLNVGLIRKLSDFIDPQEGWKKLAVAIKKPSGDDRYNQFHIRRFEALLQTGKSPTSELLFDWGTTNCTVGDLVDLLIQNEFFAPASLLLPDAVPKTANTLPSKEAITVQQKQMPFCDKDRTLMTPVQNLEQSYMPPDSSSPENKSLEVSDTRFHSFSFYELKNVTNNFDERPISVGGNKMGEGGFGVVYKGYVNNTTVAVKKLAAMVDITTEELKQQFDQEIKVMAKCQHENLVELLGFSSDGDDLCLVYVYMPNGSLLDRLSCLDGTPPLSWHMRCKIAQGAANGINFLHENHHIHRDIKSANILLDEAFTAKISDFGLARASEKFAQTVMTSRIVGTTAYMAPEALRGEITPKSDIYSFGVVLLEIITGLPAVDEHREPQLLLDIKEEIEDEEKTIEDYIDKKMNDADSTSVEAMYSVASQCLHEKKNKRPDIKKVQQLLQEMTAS
Nature of the assay: IRAK4 enzymatic assay (ADP-Glo luminescence). The settings on record: purified human recombinant His-TEV-IRAK4 (1-460), ATP 2 μM. In kind it is biochemical. In short, it runs like this:
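ADP-Glo luminescence read-out after a 2 h RT kinase reaction with 2 μM ATP and 300 nM biotinylated STK1 peptide. Enzyme (His-TEV-IRAK4 1-460, 0.3 μg/ml) first incubated 15 min with serially diluted compounds (10 μM–0.5 nM) in 50 mM Hepes pH 7.0, 10 mM MgCl2, 5 mM MnCl2.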

T1 sequence (P51617 194-712): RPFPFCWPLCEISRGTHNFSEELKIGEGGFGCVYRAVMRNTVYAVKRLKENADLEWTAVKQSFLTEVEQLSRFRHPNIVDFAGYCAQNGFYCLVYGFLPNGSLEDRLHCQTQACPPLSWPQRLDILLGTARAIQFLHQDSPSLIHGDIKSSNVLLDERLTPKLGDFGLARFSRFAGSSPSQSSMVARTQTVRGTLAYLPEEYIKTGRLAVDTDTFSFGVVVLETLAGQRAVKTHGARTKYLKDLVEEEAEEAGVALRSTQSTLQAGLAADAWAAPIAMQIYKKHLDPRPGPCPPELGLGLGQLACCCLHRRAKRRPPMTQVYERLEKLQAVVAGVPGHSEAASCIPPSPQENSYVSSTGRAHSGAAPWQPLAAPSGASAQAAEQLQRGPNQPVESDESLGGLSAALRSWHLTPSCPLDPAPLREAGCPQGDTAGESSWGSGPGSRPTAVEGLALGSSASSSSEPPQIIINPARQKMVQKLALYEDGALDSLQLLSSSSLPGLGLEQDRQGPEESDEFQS

Regarding `O=C(/N=c1\[nH]c2cc(N3CCN(C4CCC4)CC3=O)ccc2n1CCCO)c1cccc(C(F)F)c1` [Compound 184, (E)-N-(5-(4-cyclobutyl-2-oxopiperazin-1-yl)-1-(3-hydroxypropyl)-1H-benzo[d]imidazol-2(3H)-ylidene)-3-(difluoromethyl)benzamide], the IC50 at IRAK1 and at IRAK4 was at most 100 nM each time.
`CC(C)N1CCN(c2ccc3c(c2)[nH]/c(=N\C(=O)c2cccc(C(F)F)c2)n3CCCO)C(=O)C1` [Compound 185, (E)-3-(difluoromethyl)-N-(1-(3-hydroxypropyl)-5-(4-isopropyl-2-oxopiperazin-1-yl)-1H-benzo[d]imidazol-2(3H)-ylidene)benzamide]: the IC50 at IRAK1 and on IRAK4 was at most 100 nM throughout.
Consider `O=C(/N=c1\[nH]c2cc(N3CCSCC3=O)ccc2n1CCCO)c1cccc(C(F)(F)F)c1` [Compound 186, (E)-N-(1-(3-hydroxypropyl)-5-(3-oxothiomorpholino)-1H-benzo[d]imidazol-2(3H)-ylidene)-3-(trifluoromethyl)benzamide], for which the IC50 (usually the midpoint of a concentration-inhibition curve) on IRAK1 is 100 to 1000 nM; on IRAK4, at most 100 nM.
In the same order, the values of `O=C(/N=c1\[nH]c2cc(N3CCSCC3=O)ccc2n1CCCO)c1cccc(C(F)F)c1` [Compound 187, (E)-3-(difluoromethyl)-N-(1-(3-hydroxypropyl)-5-(3-oxothiomorpholino)-1H-benzo[d]imidazol-2(3H)-ylidene)benzamide] are at most 100 nM and at most 100 nM.
In the same order, the values of `Cn1cnn(-c2ccc3c(c2)[nH]/c(=N\C(=O)c2cccc(C(F)(F)F)c2)n3CCCO)c1=O` [Compound 188, (E)-N-(1-(3-hydroxypropyl)-5-(4-methyl-5-oxo-4,5-dihydro-1H-1,2,4-triazol-1-yl)-1H-benzo[d]imidazol-2(3H)-ylidene)-3-(trifluoromethyl)benzamide] are 100 to 1000 nM and at most 100 nM.
Taken in the same sequence, the figures for `Cn1ncn(-c2ccc3c(c2)[nH]/c(=N\C(=O)c2cccc(C(F)(F)F)c2)n3CCCO)c1=O` [Compound 189, (E)-N-(1-(3-hydroxypropyl)-5-(1-methyl-5-oxo-4,5-dihydro-1H-1,2,4-triazol-4(5H)-yl)-1H-benzo[d]imidazol-2(3H)-ylidene)-3-(trifluoromethyl)benzamide] were at most 100 nM and at most 100 nM.
Turning to `O=C(/N=c1\[nH]c2cc(N3CCCCS3(=O)=O)ccc2n1CCCO)c1cccc(C(F)(F)F)c1` [Compound 190, (E)-N-(5-(1,1-dioxido-1,2-thiazinan-2-yl)-1-(3-hydroxypropyl)-1H-benzo[d]imidazol-2(3H)-ylidene)-3-(trifluoromethyl)benzamide], the IC50 is 100 to 1000 nM at IRAK1 and at most 100 nM on IRAK4.
On to `CC1(C)NCCN(c2ccc3c(c2)[nH]/c(=N\C(=O)c2cccc(C(F)(F)F)c2)n3CCCO)C1=O` [Compound 191, (E)-N-(5-(3,3-dimethyl-2-oxopiperazin-1-yl)-1-(3-hydroxypropyl)-1H-benzo[d]imidazol-2(3H)-ylidene)-3-(trifluoromethyl)benzamide hydrochloride], for which the IC50 is 100 to 1000 nM at IRAK1 and at most 100 nM at IRAK4.
In the same order, the values of `O=C(/N=c1\[nH]c2cc(N3CCOCCC3=O)ccc2n1CCCO)c1cccc(C(F)(F)F)c1` [Compound 192, (E)-N-(1-(3-hydroxypropyl)-5-(5-oxo-1,4-oxazepan-4-yl)-1H-benzo[d]imidazol-2(3H)-ylidene)-3-(trifluoromethyl)benzamide] are 100 to 1000 nM and at most 100 nM.
Taken in the same sequence, the figures for `O=C(/N=c1\[nH]c2cc(N3CCCOCC3=O)ccc2n1CCCO)c1cccc(C(F)(F)F)c1` [Compound 193, (E)-N-(1-(3-hydroxypropyl)-5-(3-oxo-1,4-oxazepan-4-yl)-1H-benzo[d]imidazol-2(3H)-ylidene)-3-(trifluoromethyl)benzamide] were at most 100 nM and at most 100 nM.
In the same order, the values of `CC1(C)C(=O)N(c2ccc3c(c2)[nH]/c(=N\C(=O)c2cccc(C(F)(F)F)c2)n3CCCO)CCN1C1CC1` [Compound 194, (E)-N-(5-(4-cyclopropyl-3,3-dimethyl-2-oxopiperazin-1-yl)-1-(3-hydroxypropyl)-1H-benzo[d]imidazol-2(3H)-ylidene)-3-(trifluoromethyl)benzamide] are 100 to 1000 nM and at most 100 nM.
Turning to `C[C@H](CCO)n1/c(=N/C(=O)c2cccc(C(F)F)c2)[nH]c2cc(N3CCOCC3=O)ccc21` [Compound 242, (R,E)-3-(difluoromethyl)-N-(1-(4-hydroxybutan-2-yl)-5-(3-oxomorpholino)-1H-benzo[d]imidazol-2(3H)-ylidene)benzamide], the IC50 at IRAK1 and on IRAK4 was at most 100 nM throughout.
Take `O=C(/N=c1\[nH]c2cc(N3CCCOCC3=O)ccc2n1CCCO)c1cccc(C(F)F)c1` [Example 186, (E)-3-(difluoromethyl)-N-(1-(3-hydroxypropyl)-5-(3-oxo-1,4-oxazepan-4-yl)-1H-benzo[d]imidazol-2(3H)-ylidene)benzamide]: the IC50 on IRAK1 and on IRAK4 was at most 100 nM in each case.
Consider `O=C(/N=c1\[nH]c2cc(N3CCOCCC3=O)ccc2n1CCCO)c1cccc(C(F)F)c1` [Example 187, (E)-3-(difluoromethyl)-N-(1-(3-hydroxypropyl)-5-(5-oxo-1,4-oxazepan-4-yl)-1H-benzo[d]imidazol-2(3H)-ylidene)benzamide], for which the IC50 on IRAK1 and on IRAK4 was at most 100 nM each time.
Turning to `CC1(C)C(=O)N(c2ccc3c(c2)[nH]/c(=N\C(=O)c2cccc(C(F)F)c2)n3CCCO)CCN1C1CC1` [Example 188, (E)-N-(5-(4-cyclopropyl-3,3-dimethyl-2-oxopiperazin-1-yl)-1-(3-hydroxypropyl)-1H-benzo[d]imidazol-2(3H)-ylidene)-3-(difluoromethyl)benzamide], the IC50 at IRAK1 and at IRAK4 was at most 100 nM in each case.
Regarding `O=C(/N=c1\[nH]c2cc(N3C(=O)COCC34CC4)ccc2n1CCCO)c1cccc(C(F)(F)F)c1` [Example 189, (E)-N-(1-(3-hydroxypropyl)-5-(5-oxo-7-oxa-4-azaspiro[2.5]octan-4-yl)-1H-benzo[d]imidazol-2(3H)-ylidene)-3-(trifluoromethyl)benzamide], the IC50 on IRAK1 and at IRAK4 was at most 100 nM in each case.
For `O=C(/N=c1\[nH]c2cc(N3C(=O)COCC34CC4)ccc2n1CCCO)c1cccc(C(F)F)c1` [Example 190, (E)-3-(difluoromethyl)-N-(1-(3-hydroxypropyl)-5-(5-oxo-7-oxa-4-azaspiro[2.5]octan-4-yl)-1H-benzo[d]imidazol-2(3H)-ylidene)benzamide], the half-maximal inhibitory concentration (IC50) on IRAK1 and on IRAK4 was at most 100 nM each time.
For the compound `O=C(/N=c1\[nH]c2cc(N3CCN(C4CC4)CCC3=O)ccc2n1CCCO)c1cccc(C(F)(F)F)c1` [Example 191, (E)-N-(5-(4-cyclopropyl-7-oxo-1,4-diazepan-1-yl)-1-(3-hydroxypropyl)-1H-benzo[d]imidazol-2(3H)-ylidene)-3-(trifluoromethyl)benzamide], the IC50 at IRAK1 was 100 to 1000 nM; at IRAK4 it was at most 100 nM.
With `O=C(/N=c1\[nH]c2cc(N3CCCN(C4CC4)CC3=O)ccc2n1CCCO)c1cccc(C(F)(F)F)c1` [Example 192, (E)-N-(5-(4-cyclopropyl-2-oxo-1,4-diazepan-1-yl)-1-(3-hydroxypropyl)-1H-benzo[d]imidazol-2(3H)-ylidene)-3-(trifluoromethyl)benzamide], the IC50 on IRAK1 was 100 to 1000 nM; at IRAK4, at most 100 nM.
With `O=C(/N=c1\[nH]c2cc(-n3ccccc3=O)ccc2n1CCCO)c1cccc(C(F)(F)F)c1` [Example 193, (E)-N-(1-(3-hydroxypropyl)-5-(2-oxopyridin-1(2H)-yl)-1H-benzo[d]imidazol-2(3H)-ylidene)-3-(trifluoromethyl)benzamide], the values for the IC50 on IRAK1 and at IRAK4 were 100 to 1000 nM and at most 100 nM, respectively.
Taken in the same sequence, the figures for `O=C(/N=c1\[nH]c2cc(-n3ccccc3=O)ccc2n1CCCO)c1cccc(C(F)F)c1` [Example 194, (E)-3-(difluoromethyl)-N-(1-(3-hydroxypropyl)-5-(2-oxopyridin-1(2H)-yl)-1H-benzo[d]imidazol-2(3H)-ylidene)benzamide] were 100 to 1000 nM and at most 100 nM.
Taken in the same sequence, the figures for `CC1(C)C(=O)N(c2ccc3c(c2)[nH]/c(=N\C(=O)c2cccc(C(F)F)c2)n3CCCO)CCN1CCO` [Example 195, (E)-3-(difluoromethyl)-N-(5-(4-(2-hydroxyethyl)-3,3-dimethyl-2-oxopiperazin-1-yl)-1-(3-hydroxypropyl)-1H-benzo[d]imidazol-2(3H)-ylidene)benzamide] were 100 to 1000 nM and at most 100 nM.

The values are drawn from patent US10059701B2 (Merck Patent GmbH, priority 2015, dated 2018).
